In ChEMBL document CHEMBL1681651, “A broad spectrum anticancer nucleoside with selective toxicity against human colon cells in vitro” (2011):

Key:
Format in all cases: functional
[1] = test system: SN12C; experiment: Growth inhibition of human SN12C cells assessed as cell growth at 100 uM after 48 hrs by SRB assay; details: read-out: Activity
[2] = test system: SF-539; experiment: Growth inhibition of human SF539 cells after 48 hrs by […] growth inhibition assay; details: SF-539, 48 h
[3] = test system: COLO 205; experiment: Growth inhibition of human COLO205 cells assessed as cell growth at 100 uM after 48 hrs by SRB assay; details: COLO 205, 48 h, read-out: Activity
[4] = test system: HOP-92; experiment: Growth inhibition of human HOP92 cells assessed as cell growth at 0.1 uM after 48 hrs by SRB assay; details: HOP-92, 48 h, read-out: Activity
[5] = test system: CCRF-CEM; experiment: Growth inhibition of human CCRF-CEM cells after 48 hrs by […] growth inhibition assay
[6] = test system: UACC-257; experiment: Growth inhibition of human UACC257 cells assessed as cell growth at 0.1 uM after 48 hrs by SRB assay; details: UACC-257, 48 h, read-out: Activity
[7] = test system: HCT-116; experiment: Growth inhibition of human HCT116 cells after 48 hrs by […] growth inhibition assay; details: HCT-116, 48 h
[8] = test system: EKVX; experiment: Growth inhibition of human EKVX cells assessed as cell growth at 1 mM after 48 hrs by SRB assay; details: read-out: Activity
[9] = test system: A549; experiment: Growth inhibition of human A549 cells assessed as cell growth at 1 mM after 48 hrs by SRB assay; details: A549, 48 h, read-out: Activity
[10] = test system: Malme-3M; experiment: Growth inhibition of human MALME-3M cells assessed as cell growth at 100 uM after 48 hrs by SRB assay; details: read-out: Activity
[11] = test system: KM12; experiment: Growth inhibition of human KM12 cells assessed as cell growth at 0.1 uM after 48 hrs by SRB assay; details: KM12, 48 h, read-out: Activity
[12] = test system: SNB-19; experiment: Growth inhibition of human SNB19 cells assessed as cell growth at 10 uM after 48 hrs by SRB assay; details: SNB-19, 48 h, read-out: Activity
[13] = test system: T47D; experiment: Growth inhibition of human T47D cells assessed as cell growth at 1 uM after 48 hrs by SRB assay; details: read-out: Activity
[14] = test system: LOX IMVI; experiment: Growth inhibition of human LOXIMVI cells after 48 hrs by […] growth inhibition assay
[15] = test system: NCI-H522; experiment: Growth inhibition of human NCI-H522 cells assessed as cell growth at 0.1 uM after 48 hrs by SRB assay; details: NCI-H522, 48 h, read-out: Activity
[16] = test system: LOX IMVI; experiment: Growth inhibition of human LOXIMVI cells assessed as cell growth at 100 uM after 48 hrs by SRB assay; details: read-out: Activity
[17] = test system: NCI/ADR-RES; experiment: Growth inhibition of human NCI/ADR-RES cells assessed as cell growth at 10 uM after 48 hrs by SRB assay; details: read-out: Activity
[18] = test system: Malme-3M; experiment: Growth inhibition of human MALME-3M cells assessed as cell growth at 1 uM after 48 hrs by SRB assay; details: read-out: Activity
[19] = test system: NCI-H522; experiment: Growth inhibition of human NCI-H522 cells assessed as cell growth at 1 uM after 48 hrs by SRB assay; details: NCI-H522, 48 h, read-out: Activity
[20] = test system: HOP-62; experiment: Growth inhibition of human HOP62 cells assessed as cell growth at 100 uM after 48 hrs by SRB assay; details: HOP-62, 48 h, read-out: Activity
[21] = test system: SNB-75; experiment: Growth inhibition of human SNB75 cells assessed as cell growth at 1 uM after 48 hrs by SRB assay; details: SNB-75, 48 h, read-out: Activity
[22] = test system: SNB-19; experiment: Growth inhibition of human SNB19 cells assessed as cell growth at 100 uM after 48 hrs by SRB assay; details: SNB-19, 48 h, read-out: Activity
[23] = test system: M14; experiment: Growth inhibition of human M14 cells assessed as cell growth at 1 uM after 48 hrs by SRB assay; details: M14, 48 h, read-out: Activity
[24] = test system: T47D; experiment: Growth inhibition of human T47D cells assessed as cell growth at 0.1 uM after 48 hrs by SRB assay; details: read-out: Activity
[25] = test system: 786-0; experiment: Growth inhibition of human 786-0 cells assessed as cell growth at 100 uM after 48 hrs by SRB assay; details: 786-0, 48 h, read-out: Activity
[26] = test system: CCRF-CEM; experiment: Growth inhibition of human CCRF-CEM cells assessed as cell growth at 100 uM after 48 hrs by SRB assay; details: read-out: Activity
[27] = Growth inhibition of human […] cells assessed as cell growth at 0.1 uM after 48 hrs by SRB assay; details: read-out: Activity
[28] = test system: OVCAR-5; experiment: Growth inhibition of human OVCAR5 cells assessed as cell growth at 100 uM after 48 hrs by SRB assay; details: OVCAR-5, 48 h, read-out: Activity
[29] = test system: NCI-H322M; experiment: Growth inhibition of human NCI-H322M cells assessed as cell growth at 1 uM after 48 hrs by SRB assay; details: read-out: Activity
[30] = test system: KM12; experiment: Growth inhibition of human KM12 cells assessed as cell growth at 10 uM after 48 hrs by SRB assay; details: KM12, 48 h, read-out: Activity
[31] = test system: A549; experiment: Growth inhibition of human A549 cells assessed as cell growth at 1 uM after 48 hrs by SRB assay; details: A549, 48 h, read-out: Activity
[32] = test system: HCC 2998; experiment: Growth inhibition of human HCC2998 cells assessed as cell growth at 100 uM after 48 hrs by SRB assay; details: HCC 2998, 48 h, read-out: Activity
[33] = test system: SNB-75; experiment: Growth inhibition of human SNB75 cells assessed as cell growth at 10 uM after 48 hrs by SRB assay; details: SNB-75, 48 h, read-out: Activity
[34] = test system: ACHN; experiment: Growth inhibition of human ACHN cells assessed as cell growth at 100 uM after 48 hrs by SRB assay; details: read-out: Activity
[35] = test system: SF-268; experiment: Growth inhibition of human SF268 cells assessed as cell growth at 10 uM after 48 hrs by SRB assay; details: SF-268, 48 h, read-out: Activity
[36] = test system: MDA-MB-435; experiment: Growth inhibition of human MDA-MB-435 cells assessed as cell growth at 0.1 uM after 48 hrs by SRB assay; details: MDA-MB-435, 48 h, read-out: Activity
[37] = test system: 786-0; experiment: Growth inhibition of human 786-0 cells assessed as cell growth at 1 mM after 48 hrs by SRB assay; details: 786-0, 48 h, read-out: Activity
[38] = test system: HOP-62; experiment: Growth inhibition of human HOP62 cells assessed as cell growth at 1 mM after 48 hrs by SRB assay; details: HOP-62, 48 h, read-out: Activity
[39] = read-out: LC50 (the source's name)
[40] = read-out: pLC50 (the source's name) (converted)

CNC(=O)NC[C@H]1O[C@@H](n2cnc3c(NC(=O)Nc4ccccc4)ncnc32)[C@H](O[Si](C)(C)C(C)(C)C)[C@@H]1O[Si](C)(C)C(C)(C)C
growth at 100 µM [1]: -87% | GI50 ([2]; read-out: GI50): 3.07 µM | CC50 [2, 39]: 94.3 µM | TGI ([2]; read-out: TGI): 13 µM | GI50 ([2]; read-out: pGI50 (converted)): 3.09 µM | CC50 [2, 40]: 93.3 µM | TGI ([2]; read-out: pTGI (converted)): 12.9 µM | growth at 100 µM [3]: -95% | growth at 0.1 µM [4]: 85% | GI50 ([5]; read-out: GI50): 3.59 µM | LC50 (lethal concentration, 50% net cell kill) ([5]; read-out: LC50): > 100 µM | TGI ([5]; read-out: TGI): > 100 µM | GI50 ([5]; read-out: pGI50 (converted)): 3.63 µM | LC50 (lethal concentration, 50% net cell kill) ([5]; read-out: pLC50 (converted)): > 100 µM | TGI ([5]; read-out: pTGI (converted)): > 100 µM | growth at 0.1 µM [6]: 97% | GI50 ([7]; read-out: GI50): 2110 nM | CC50 [7, 39]: 8.8 µM | TGI ([7]; read-out: TGI): 4.31 µM | GI50 ([7]; read-out: pGI50 (converted)): 2090 nM | CC50 [7, 40]: 8.71 µM | TGI ([7]; read-out: pTGI (converted)): 4.27 µM | growth at 1000 µM [8]: -9% | growth at 1000 µM [9]: -30% | growth at 100 µM [10]: -1% | growth at 0.1 µM [11]: 104% | growth at 10 µM [12]: 91% | growth at 1 µM [13]: 105% | GI50 ([14]; read-out: GI50): 1.82 µM | CC50 [14, 39]: 6.21 µM | TGI ([14]; read-out: TGI): 3.36 µM | GI50 ([14]; read-out: pGI50 (converted)): 1.82 µM | CC50 [14, 40]: 6.17 µM | TGI ([14]; read-out: pTGI (converted)): 3.39 µM | growth at 0.1 µM [15]: 92% | growth at 100 µM [16]: -89% | growth at 10 µM [17]: 103% | growth at 1 µM [18]: 98% | growth at 1 µM [19]: 90% | growth at 100 µM [20]: 26% | growth at 1 µM [21]: 95% | growth at 100 µM [22]: 29% | growth at 1 µM [23]: 107% | growth at 0.1 µM [24]: 101% | growth at 100 µM [25]: -83% | growth at 100 µM [26]: 9% | growth at 0.1 µM [27]: 102% | growth at 100 µM [28]: 29% | growth at 1 µM [29]: 106% | growth at 10 µM [30]: 107% | growth at 1 µM [31]: 98% | growth at 100 µM [32]: -79% | growth at 10 µM [33]: 73% | growth at 100 µM [34]: 10% | growth at 10 µM [35]: 102% | growth at 0.1 µM [36]: 102% | growth at 1000 µM [37]: -80% | growth at 1000 µM [38]: -86%

CCOC(=O)C[C@H]1[C@@H](O[Si](C)(C)C(C)(C)C)[C@H](n2cnc3c(NC(=O)Nc4ccccc4)ncnc32)O[C@@H]1CNC(=O)NC
growth at 100 µM [1]: 48% | GI50 ([2]; read-out: GI50): 5.19 µM | CC50 [2, 39]: > 100 µM | TGI ([2]; read-out: TGI): > 100 µM | GI50 ([2]; read-out: pGI50 (converted)): 5.25 µM | CC50 [2, 40]: > 100 µM | TGI ([2]; read-out: pTGI (converted)): > 100 µM | growth at 100 µM [3]: 20% | growth at 0.1 µM [4]: 4% | GI50 ([5]; read-out: GI50): 6.69 µM | LC50 (lethal concentration, 50% net cell kill) ([5]; read-out: LC50): > 100 µM | TGI ([5]; read-out: TGI): 88.6 µM | GI50 ([5]; read-out: pGI50 (converted)): 6.76 µM | LC50 (lethal concentration, 50% net cell kill) ([5]; read-out: pLC50 (converted)): > 100 µM | TGI ([5]; read-out: pTGI (converted)): 89.1 µM | growth at 0.1 µM [6]: 102% | GI50 ([7]; read-out: GI50): 3200 nM | CC50 [7, 39]: 45.6 µM | TGI ([7]; read-out: TGI): 16.1 µM | GI50 ([7]; read-out: pGI50 (converted)): 3240 nM | CC50 [7, 40]: 45.7 µM | TGI ([7]; read-out: pTGI (converted)): 16.2 µM | growth at 1000 µM [8]: 42% | growth at 1000 µM [9]: -58% | growth at 100 µM [10]: 50% | growth at 0.1 µM [11]: 107% | growth at 10 µM [12]: 87% | growth at 1 µM [13]: 89% | GI50 ([14]; read-out: GI50): 5.46 µM | CC50 [14, 39]: > 100 µM | TGI ([14]; read-out: TGI): > 100 µM | GI50 ([14]; read-out: pGI50 (converted)): 5.5 µM | CC50 [14, 40]: > 100 µM | TGI ([14]; read-out: pTGI (converted)): > 100 µM | growth at 0.1 µM [15]: 89% | growth at 100 µM [16]: 35% | growth at 10 µM [17]: 104% | growth at 1 µM [18]: 95% | growth at 1 µM [19]: 85% | growth at 100 µM [20]: 48% | growth at 1 µM [21]: 90% | growth at 100 µM [22]: 82% | growth at 1 µM [23]: 82% | growth at 0.1 µM [24]: 91% | growth at 100 µM [25]: -34% | growth at 100 µM [26]: 41% | growth at 0.1 µM [27]: 77% | growth at 100 µM [28]: 72% | growth at 1 µM [29]: 90% | growth at 10 µM [30]: 105% | growth at 1 µM [31]: 103% | growth at 100 µM [32]: 69% | growth at 10 µM [33]: 85% | growth at 100 µM [34]: 47% | growth at 10 µM [35]: 93% | growth at 0.1 µM [36]: 95% | growth at 1000 µM [37]: -97% | growth at 1000 µM [38]: -65%
